This note sets out measurements from PMC6971092, “Identification of emulsifier potato peptides by bioinformatics: application to omega-3 delivery emulsions and release from potato industry side streams” (Scientific Reports, 2020).

Data set [1] in a line: Oxidative stability of emulsions by ESR (PBN-lipid spin adducts). The conditions noted are these: 5 wt.% fish oil-in-water emulsions; for oxidative stability of emulsion at 20 °C compared to α-10, α-12 and γ-1 (in words): storage at 20 °C; for oxidative stability of emulsion (generation of PBN-lipid spin adducts, in words, Fig. 4): storage 6 days in the dark at both 20 and 37 °C. The procedure:
Oxidative stability of emulsions prepared with selected peptides was studied by electron spin resonance (ESR)[31]. ESR analysis was carried out using a benchtop MINISCOPE MS 5000 ESR spectrometer (MAGNETTECH GMBH, Germany). The instrument settings were as follows: magnetic field 320–360 mT, sweep time 60 s, modulation 0.2 mT and frequency 100 kHz. Emulsions were produced as described in section 2.3.1.2 and PBN was added as an ethanol solution (concentration of 50 mg/mL) to have 30 mM of PBN in the oil phase of the emulsion. The oxidative stability of the emulsions was determined during 6 days storage at 20 or 37 °C and samples were measured at days 0, 1 (only for 37 °C), 2, 4 and 6. For each sampling point, emulsion samples (50 μL) were transferred to borosilicate capillary tubes before they were introduced to the cavity of the ESR. Analyses were performed in triplicate at room temperature.

The nature of data set [2]: Solubility of peptides in sodium acetate-imidazole buffer. The data set is classed as physicochemical. More on the design: key: Soluble: totally soluble; Cloudy: cloudy: no totally soluble. The conditions noted are these: 0.2 wt.% in 10 mM sodium acetate - 10 mM imidazole buffer (pH 7); shaken 2 h at 50 °C and overnight at room temperature; visual. The procedure:
(§1) Emulsions were produced as reported in our previous work[31]. A total amount of 2 g of 5 wt.% fish oil-in-water emulsion stabilized with 0.2 wt.% potato peptides was produced. Peptides (0.2 wt.%) were dissolved in 10 mM sodium acetate – 10 mM imidazole buffer (pH 7). For that, the peptide solutions were shaken (100 rpm) for 2 h in water bath at 50 °C and overnight at room temperature to allow complete solubilization and rehydration of the peptides (when possible). Primary homogenization was done by adding the fish oil to the peptide-buffer solution and mixing at 18,000 rpm for 30 s by using a POLYTRON PT1200E (Kinematic Inc., New York, USA). Secondary homogenization was done using a MICROSON XL2000 sonicator equipped with a P1 probe (Misonix, Inc., New York, USA). Emulsions were homogenized at an amplitude of 75% (maximum amplitude of 180 μm), running 2 passes of 30 s with a break of 1 min between passes. During sonication the emulsions were surrounded by iced water to minimize the increase in temperature. […] All emulsions were produced and tested in triplicate.
Among the 38 peptides tested, 14 peptides were not totally soluble resulting in cloudy aqueous phases (e.g. no transparent solutions were obtained and white peptides particles could be observed). […] Differences in pH are due to the acidic impurities present in the synthetic peptides used, and to the insufficient capacity of the buffer employed to keep pH constant at 7. Nonetheless, sodium acetate-imidazole buffer was preferred to phosphate buffer in order to avoid interferences of phosphate buffer in oxidative stability studies as consequence of its chelating activity.

A short description of data set [3]: Zeta potential of emulsions. Format: physicochemical. The conditions noted are these: 5 wt.% fish oil-in-water emulsion, 0.2 wt.% peptide; after one day of storage; 10 μL emulsion in 5 mL buffer; 25 °C; mean ± SD, triplicate. As for the experimental part:
as §1
The zeta potential of the emulsions was measured after one day of storage in a ZETASIZER NANO ZS (Malvern instruments Ltd., Worcestershire, UK) with a DTS1070 cell at 25 °C[31]. […] The zeta potential range was set to −100 to +50 mV and the samples were analyzed with 100 runs. […]

Data set [4] in a line: Droplet size of emulsions by laser diffraction. The data set is classed as physicochemical. The conditions noted are these: mean ± SD, triplicate. The procedure:
as §1
(§2) The droplet size distribution of the emulsions was measured by laser diffraction in a MASTERSIZER 2000 (Malvern Instruments, Ltd., Worcestershire, UK) at days 0, 1, 3 and 6 during storage in dark at room temperature (~22 °C)[31]. Each emulsion was diluted in recirculating water (3000 rpm), until it reached an obscuration of 12%. The refractive indices of sunflower oil (1.469) and water (1.330) were used as particle and dispersant, respectively. Results are given in volume mean diameter (D4,3). Measurements were made in triplicate. Due to the low volume of emulsions produced, creaming was determined qualitatively by observing the appearance of the emulsions. Peptides forming emulsions with small droplet sizes and no creaming were selected for further study.

Data set [5] can be described thus: Qualitative observation of creaming of emulsions. Also on record: key: 1: no creaming; 2: creaming; 3: oil layer above the emulsion; 4: phase separation. The data set is classed as physicochemical. The procedure:
as §1, §2

Data set [6] can be described thus: Iron (Fe2+) chelating activity. The data set is classed as biochemical. The conditions noted are these: 0.2 wt.% at pH 7; data not shown. The procedure:
Peptides were dissolved in 10 mM sodium acetate - 10 mM imidazole buffer (pH 7) at 0.2 wt.%. 1 1,1-Diphenyl-2-picrylhydrazyl (DPPH) radical scavenging activity, iron (Fe^2+) chelating activity and ferric (Fe^3+) reducing power were measured as described elsewhere.

A short description of data set [7]: pH of peptide-stabilized emulsions. Format: physicochemical. The conditions noted are these: 5 wt.% fish oil-in-water emulsion stabilized with 0.2 wt.% peptide in 10 mM sodium acetate - 10 mM imidazole buffer (pH 7). The procedure:
as §1
Among the 38 peptides tested, 14 peptides were not totally soluble resulting in cloudy aqueous phases (e.g. no transparent solutions were obtained and white peptides particles could be observed). […]

Residues, ends and D or L forms follow the SMILES beside them. No end group written: not given here.

Consider `CC(C)C[C@H](NC(=O)[C@H](CS)NC(=O)[C@H](Cc1ccccc1)NC(=O)[C@H](CCC(N)=O)NC(=O)[C@H](CC(=O)O)NC(=O)[C@H](CC(=O)O)NC(=O)[C@H](CO)NC(=O)[C@H](CO)NC(=O)[C@H](Cc1ccccc1)NC(=O)[C@@H]1CCCN1C(=O)[C@@H](N)CS)C(=O)N[C@@H](CCCCN)C(=O)N[C@H](C(=O)NCC(=O)N[C@H](C(=O)O)C(C)C)C(C)C` [β-22] (H-CPFSSDDQFCLKVGV-OH), for which the “oxidative stability of emulsion at 20 °C compared to α-10, α-12 and γ-1 (in words)” value in data set [1] was “significantly more oxidatively stable”. Moreover, in data set [2], the Solubility of peptides result is given as “Soluble”.
As for `CC[C@H](C)[C@H](NC(=O)[C@@H](NC(=O)[C@@H](NC(=O)CNC(=O)[C@@H](NC(=O)[C@H](CCCCN)NC(=O)[C@H](C)NC(=O)[C@H](CS)NC(=O)[C@H](Cc1ccccc1)NC(=O)[C@H](CC(N)=O)NC(=O)[C@H](CC(=O)O)NC(=O)[C@H](CC(=O)O)NC(=O)[C@H](CCCNC(=N)N)NC(=O)[C@@H](N)CS)C(C)C)C(C)C)C(C)C)C(=O)O` [γ-34] (H-CRDDNFCAKVGVVI-OH), in data set [2], the Solubility of peptides result is recorded as “Cloudy”.
As to AKDIVPFYFEHGPHIFN [α-14], the Solubility of peptides result in data set [2] is listed as “Soluble”.
Take DDNFCAKVGVVIQ [β-30]: the Solubility of peptides entry in data set [2] is recorded as “Cloudy”.
On the same count and under the same terms, as for DNFCAKVGVVIQNGKRR [γ-44], the entry is “Cloudy”.
DSPETYEEALKRFAKLLSD [α-12]: in data set [1], the “oxidative stability of emulsion (generation of PBN-lipid spin adducts, in words, Fig. 4)” value was “lowest oxidative stability”. The Solubility of peptides result in data set [2] is given as “Soluble”.
Consider DTNGKELNPNSSYRIISIGRGALGGDVYL [γ-42], for which, in data set [2], the Solubility of peptides result is given as “Cloudy”.
The same measure, in the same setting: as for EALKRFAKLLSD [α-11], the entry is “Soluble”; as for ELDSRLSYRIISTFWGALGGDVYL [β-21], “Cloudy”; as for ELDSRLSYRIISTFWGALGGDVYLGKSPN [β-20], “Cloudy”.
Consider FAKLLSDRKKLRANK [γ-46], for which the Solubility of peptides result in data set [2] is “Soluble”.
As for FCLKVGVIHQNGKRRLALVK [γ-49], in data set [1], the “oxidative stability of emulsion (generation of PBN-lipid spin adducts, in words, Fig. 4)” value is “highest oxidative stability”. The Solubility of peptides entry in data set [2] is reported as “Soluble”.
In the case of FCLKVGVVHQNGKRRLALVKDNP [γ-38], the “oxidative stability of emulsion at 20 °C compared to α-10, α-12 and γ-1 (in words)” value in data set [1] is given as “significantly more oxidatively stable”. Moreover, the Solubility of peptides result in data set [2] was “Soluble”.
Consider FDVIGGTSTGGLLTAMITTPNENNRP [γ-36], for which the “oxidative stability of emulsion (generation of PBN-lipid spin adducts, in words, Fig. 4)” value in data set [1] is reported as “highest oxidative stability”. Also, the Solubility of peptides result in data set [2] is given as “Soluble”.
In the case of FIPLSTNIFEDQLLNIQFNIPT [β-23], in data set [2], the Solubility of peptides result is recorded as “Cloudy”.
Regarding GIIPATILEFLEGQLQEVDNN [γ-48], the Solubility of peptides entry in data set [2] is given as “Soluble”.
With GIKGIIPAIILEFLEGQLQEVDNNKDAR [γ-1], in data set [1], the “oxidative stability of emulsion (generation of PBN-lipid spin adducts, in words, Fig. 4)” value is given as “lowest oxidative stability”. In data set [2], the Solubility of peptides result was “Soluble”.
GKELDPRLSYRI [β-26]: the Solubility of peptides result in data set [2] is reported as “Soluble”.
Same read-out and setting: as for HQNGKRRLALV [γ-39], the entry is “Soluble”; as for IGSSSHFGPHIFEGELLNIQFDIS [β-29], “Cloudy”; as for ILEFLEGQLQEVDN [α-16], “Soluble”.
On to IPATILEFLEGQLQEVDNN [α-15], for which the Solubility of peptides entry in data set [2] is “Soluble”.
As to KDNPETYEEALKRFAKLLS [γ-41], the Solubility of peptides result in data set [2] is reported as “Soluble”.
For the compound KKPVSKDSPETYEEALKRFAKLLSDRKKL [α-10], the “oxidative stability of emulsion (generation of PBN-lipid spin adducts, in words, Fig. 4)” value in data set [1] is recorded as “lowest oxidative stability”. Also, the Solubility of peptides entry in data set [2] is on record as “Soluble”.
Regarding KYDGKYLMQVLQE [α-17], the Solubility of peptides result in data set [2] was “Cloudy”.
Take KYLMQVLQEKL [α-19]: the Solubility of peptides entry in data set [2] is listed as “Soluble”.
In the case of KYLMQVLQEKLGE [α-18], the Solubility of peptides result in data set [2] was “Cloudy”.
LGGDVYLGKSPNSDAPCP [β-31]: in data set [2], the Solubility of peptides entry is “Soluble”.
On the same count and under the same terms, as for LLTAMITTPNENNRP [γ-37], the entry is “Soluble”; as for LNIQFNI [β-24], “Cloudy”.
Consider LNIQFNIPTPKLC [β-27], for which the “oxidative stability of emulsion (generation of PBN-lipid spin adducts, in words, Fig. 4)” value in data set [1] is “highest oxidative stability”. For the same compound, in data set [2], the Solubility of peptides result is “Cloudy”.
With NPNSSYRIISI [γ-43], the Solubility of peptides result in data set [2] is recorded as “Soluble”.
Take NRPFAAAKDIVPFYFEHGPHIFN [α-13]: the Solubility of peptides result in data set [2] is on record as “Soluble”.
Turning to RDDNFCAKVGVVI [γ-35], the Solubility of peptides entry in data set [2] is “Cloudy”.
Regarding SSDDQFCLKVGVV [γ-40], the “oxidative stability of emulsion (generation of PBN-lipid spin adducts, in words, Fig. 4)” value in data set [1] is “highest oxidative stability”. The Solubility of peptides result in data set [2] is on record as “Cloudy”.
For Sodium caseinate, the “Zeta potential (mV)” value in data set [3] is given as −41.5 ± 1.1 mV. Moreover, in data set [4] (as Day 0, day 1 of storage in dark at room temperature (~22 °C)), the “D4,3 (μm) Day 1” value is 1.1 ± 0.2 μm. For the same compound, the “D4,3 (μm) Day 3” value in data set [4] (as Day 0, day 3 of storage in dark at room temperature (~22 °C)) turned out to be 0.9 ± 0.2 μm. Besides, in data set [4] (as Day 0, day 6 of storage in dark at room temperature (~22 °C)), the “D4,3 (μm) Day 6” value worked out at 1.0 ± 0.2 μm. In addition, in data set [4] (volume mean diameter, 5 wt.% fish oil-in-water emulsion, 0.2 wt.% peptide, pH 7 buffer, laser diffraction, day 0), the “D4,3 (μm) Day 0” value is listed as 1.1 ± 0.2 μm. For the same compound, in data set [5] (appearance of 5 wt.% fish oil-in-water emulsion, 0.2 wt.% peptide, day 0), the “Observations Day 0 (creaming)” value was found to be 1. For the same compound, the “Observations Day 1 (creaming)” value in data set [5] (appearance of emulsion, day 1 of storage at ~22 °C) is 1. For the same compound, the “Observations Day 6 (creaming)” value in data set [5] (appearance of emulsion, day 6 of storage at ~22 °C) was 1. Also, in data set [6], the “Fe2+ chelating activity” value was found to be 98.5 ± 0.2%. Moreover, the pH of emulsion in data set [7] is 6.9. Also, in data set [1], the “oxidative stability of emulsion (generation of PBN-lipid spin adducts, in words, Fig. 4)” value is reported as “highest oxidative stability”. The Solubility of peptides result in data set [2] is given as “Soluble”.
For TPNENNRPFAAAKDIV [γ-47], the Solubility of peptides result in data set [2] is “Soluble”.
Turning to VGVVIQNGKRR [γ-45], the Solubility of peptides result in data set [2] was “Soluble”.
As for VHQNGKRRLALVKDNPLDVSFK [β-28], the Solubility of peptides result in data set [2] is reported as “Soluble”.
